Experimental data taken from patent US20260355361A1, “METHODS FOR DIAGNOSIS AND TREATMENT OF PULMONARY HYPERTENSION” (THE METHODIST HOSPITAL, priority 2022, published 2026).

Target: VEGFr2 (Rattus norvegicus, UniProt O08775)
Assay: PET imaging of ^18F-ZD-G2 versus ^18FDG in MCT rat model of PAH
Assay type: in vivo
Conditions: early stage of PAH (MCT-10 days and MCT-2 weeks); PET at 60 minutes after injection
Description: Images of ^18F-ZD-G2 probe and ^18FDG were compared. Rats exposed to monocrotaline were used to develop pulmonary arterial hypertension rat model (MCT), while healthier rats were used as a control group.
Images of ^18F-ZD-G2 probe and ^18FDG were compared.
A PET imaging study was further performed with ^18F-ZD-G2 using MCT rat model as previous described. Healthy rats were used as control. Clinically used ^18FDG PET imaging was also performed on both groups of […] following the same imaging protocol for comparison.

Sequence of VEGFr2 (O08775 20-1343): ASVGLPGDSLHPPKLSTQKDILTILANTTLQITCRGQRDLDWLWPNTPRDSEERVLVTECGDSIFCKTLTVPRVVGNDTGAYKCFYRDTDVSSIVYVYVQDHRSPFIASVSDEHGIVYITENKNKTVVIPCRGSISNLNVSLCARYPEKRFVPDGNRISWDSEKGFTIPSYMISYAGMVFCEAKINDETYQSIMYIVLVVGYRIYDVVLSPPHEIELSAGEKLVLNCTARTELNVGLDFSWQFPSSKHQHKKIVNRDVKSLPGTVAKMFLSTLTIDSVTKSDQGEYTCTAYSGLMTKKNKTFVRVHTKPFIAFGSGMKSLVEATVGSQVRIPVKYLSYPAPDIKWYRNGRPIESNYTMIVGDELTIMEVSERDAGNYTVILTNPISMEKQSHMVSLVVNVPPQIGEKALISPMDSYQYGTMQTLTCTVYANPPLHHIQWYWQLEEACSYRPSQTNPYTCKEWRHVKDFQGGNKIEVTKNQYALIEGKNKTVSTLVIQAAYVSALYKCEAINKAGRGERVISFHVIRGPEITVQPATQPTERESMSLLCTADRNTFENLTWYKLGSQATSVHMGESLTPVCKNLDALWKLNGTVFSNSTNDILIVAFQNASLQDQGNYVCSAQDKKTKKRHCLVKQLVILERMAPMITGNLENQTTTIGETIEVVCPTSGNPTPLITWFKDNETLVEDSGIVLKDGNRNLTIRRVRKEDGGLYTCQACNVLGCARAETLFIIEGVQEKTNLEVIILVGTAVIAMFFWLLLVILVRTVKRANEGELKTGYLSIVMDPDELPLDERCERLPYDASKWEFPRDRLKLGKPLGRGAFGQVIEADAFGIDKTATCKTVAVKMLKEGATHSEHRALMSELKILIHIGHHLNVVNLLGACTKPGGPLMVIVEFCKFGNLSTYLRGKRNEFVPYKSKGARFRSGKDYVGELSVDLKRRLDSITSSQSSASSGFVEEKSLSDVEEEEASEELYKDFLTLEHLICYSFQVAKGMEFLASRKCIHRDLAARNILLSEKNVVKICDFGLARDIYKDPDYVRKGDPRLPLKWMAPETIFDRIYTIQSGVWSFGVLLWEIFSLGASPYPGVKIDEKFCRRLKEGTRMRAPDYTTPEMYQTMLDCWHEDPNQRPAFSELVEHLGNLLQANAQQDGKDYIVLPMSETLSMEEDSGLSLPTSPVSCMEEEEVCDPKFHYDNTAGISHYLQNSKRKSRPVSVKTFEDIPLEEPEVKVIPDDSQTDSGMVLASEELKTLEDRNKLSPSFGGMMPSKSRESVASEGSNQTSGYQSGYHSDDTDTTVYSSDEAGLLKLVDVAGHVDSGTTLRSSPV

Lung uptake, MCT versus control: no obvious difference
SMILES: OC[C@H]1OC(O)[C@H]([18F])[C@@H](O)[C@@H]1O (stereo partly shown) [^18FDG]
